Data from ChEMBL document CHEMBL1129590, “Tyrphostins. 6. Dimeric benzylidenemalononitrile tyrophostins: potent inhibitors of EGF receptor tyrosine kinase in vitro” (J Med Chem, 1996).

Tests used:
[1] = molecular target: T1, Epidermal growth factor receptor (Homo sapiens, UniProt P00533); experiment: Inhibition of epidermal growth factor receptor (EGFR) phosphorylation of the exogenous substrate poly(Glu6, Ala3,Tyr) (polyGAT)
[2] = molecular target: T1, Epidermal growth factor receptor; experiment: Inhibitory activity of compound against Epidermal growth factor receptor autophosphorylation

T1 sequence (P00533 whole entry): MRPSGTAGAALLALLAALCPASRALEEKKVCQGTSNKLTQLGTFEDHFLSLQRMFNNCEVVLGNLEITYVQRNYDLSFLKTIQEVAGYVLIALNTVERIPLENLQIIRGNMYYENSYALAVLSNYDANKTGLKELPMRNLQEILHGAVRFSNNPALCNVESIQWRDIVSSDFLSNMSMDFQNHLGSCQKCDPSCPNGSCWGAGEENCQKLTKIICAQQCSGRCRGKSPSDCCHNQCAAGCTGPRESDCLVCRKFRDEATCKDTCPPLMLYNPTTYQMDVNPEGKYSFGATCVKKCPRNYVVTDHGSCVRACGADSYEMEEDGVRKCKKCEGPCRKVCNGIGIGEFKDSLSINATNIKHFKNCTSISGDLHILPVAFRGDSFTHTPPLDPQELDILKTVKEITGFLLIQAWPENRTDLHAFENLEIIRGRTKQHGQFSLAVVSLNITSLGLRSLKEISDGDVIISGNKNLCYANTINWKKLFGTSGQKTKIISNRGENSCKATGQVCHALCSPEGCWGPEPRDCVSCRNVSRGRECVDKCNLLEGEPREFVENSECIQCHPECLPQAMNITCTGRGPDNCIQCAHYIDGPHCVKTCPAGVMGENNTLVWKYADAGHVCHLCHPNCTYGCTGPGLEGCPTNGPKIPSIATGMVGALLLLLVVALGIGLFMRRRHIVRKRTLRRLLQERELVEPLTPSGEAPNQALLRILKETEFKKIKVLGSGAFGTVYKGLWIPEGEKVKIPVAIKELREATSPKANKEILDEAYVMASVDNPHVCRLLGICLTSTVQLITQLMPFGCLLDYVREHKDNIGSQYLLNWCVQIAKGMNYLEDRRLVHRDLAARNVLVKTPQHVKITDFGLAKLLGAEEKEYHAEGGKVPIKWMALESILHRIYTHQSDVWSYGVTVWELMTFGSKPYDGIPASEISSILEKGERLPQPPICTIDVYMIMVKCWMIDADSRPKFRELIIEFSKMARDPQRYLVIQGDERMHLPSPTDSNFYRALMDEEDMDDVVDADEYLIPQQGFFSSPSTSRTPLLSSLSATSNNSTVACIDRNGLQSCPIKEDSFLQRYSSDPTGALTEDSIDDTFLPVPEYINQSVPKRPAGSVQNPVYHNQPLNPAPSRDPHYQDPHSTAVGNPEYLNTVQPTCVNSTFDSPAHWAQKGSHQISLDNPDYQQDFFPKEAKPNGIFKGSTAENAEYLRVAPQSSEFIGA

| SMILES | IC50 [1] | IC50 [2] |
| --- | --- | --- |
| N#C/C(=C\c1ccc2[nH]ccc2c1)C(=O)NCCCNC(=O)/C(C#N)=C/c1ccc2[nH]ccc2c1 | > 100 µM | > 100 µM |
| N#C/C(=C\c1ccc(O)c(O)c1)C(=O)NCc1cccc(CNC(=O)/C(C#N)=C/c2ccc(O)c(O)c2)c1 | 1.6 µM | 10.3 µM |
| N#C/C(=C\c1ccc(O)c(O)c1)C(=O)NCCCN1CCN(CCCNC(=O)/C(C#N)=C/c2ccc(O)c(O)c2)CC1 |  | > 167 µM |
| N#C/C(=C\c1ccc(O)c(O)c1)C(=O)NCCCCNC(=O)/C(C#N)=C/c1ccc(O)c(O)c1 | 0.6 µM | 4.3 µM |
| N#C/C(=C\c1cc(O)c(O)c([N+](=O)[O-])c1)C(=O)NCCCNC(=O)/C(C#N)=C/c1cc(O)c(O)c([N+](=O)[O-])c1 |  | > 100 µM |
| N#C/C(=C\c1ccc(O)c(O)c1)C(=O)NCCCCCCNC(=O)/C(C#N)=C/c1ccc(O)c(O)c1 | 0.7 µM | 11 µM |
| N#C/C(=C\c1cc(O)c(O)c(Br)c1)C(=O)NCCCNC(=O)/C(C#N)=C/c1cc(O)c(O)c(Br)c1 | 0.34 µM | 3.9 µM |
| N#C/C(=C\c1ccc(O)c(O)c1)C(=O)NC1CCCC[C@@H]1NC(=O)/C(C#N)=C/c1ccc(O)c(O)c1 (some centres not stated) | 2.1 µM | 13.5 µM |
| N#C/C(=C\c1cc(O)c(O)c(Br)c1)S(=O)(=O)/C(C#N)=C/c1cc(O)c(O)c(Br)c1 | 0.85 µM | 1.4 µM |
| N#C/C(=C\c1ccc(O)c(O)c1)C(=O)NCCCCCNC(=O)/C(C#N)=C/c1ccc(O)c(O)c1 | 0.7 µM | 20 µM |
| N#C/C(=C\c1ccc(O)c(O)c1)C(=O)NCCNC(=O)/C(C#N)=C/c1ccc(O)c(O)c1 | 0.5 µM | 113 µM |
| N#C/C(=C\c1ccc(O)c(O)c1)C(=O)NCN1CCN(C(=O)/C(C#N)=C/c2ccc(O)c(O)c2)CC1 |  | > 83 µM |
| COc1cc(/C=C(\C#N)C(=O)NCCCCNC(=O)/C(C#N)=C/c2cc(OC)c(O)c([N+](=O)[O-])c2)cc([N+](=O)[O-])c1O | 112 µM | 19 µM |
| N#C/C(=C\c1ccc(O)c(O)c1)C(=O)NC1CCC(CC2CCC(NC(=O)/C(C#N)=C/c3ccc(O)c(O)c3)CC2)CC1 (configuration not stated) |  | > 83 µM |
| N#C/C(=C\c1ccc(O)c(O)c1)C(=O)NCCN1CCN(C(=O)/C(C#N)=C/c2ccc(O)c(O)c2)CC1 | 2.2 µM | 10 µM |
| N#C/C(=C\c1ccc(O)c(O)c1)S(=O)(=O)/C(C#N)=C/c1ccc(O)c(O)c1 | 0.38 µM | 12 µM |
| N#C/C(=C\c1ccc(O)c(O)c1)C(=O)NCC1CCCC(CNC(=O)/C(C#N)=C/c2ccc(O)c(O)c2)C1 (configuration not stated) | 1.8 µM | > 100 µM |
| COc1cc(/C=C(\C#N)C(=O)NCCCCNC(=O)/C(C#N)=C/c2cc(Br)c(O)c(OC)c2)cc(Br)c1O |  | 102 µM |
| N#C/C(=C\c1ccc(O)c(O)c1)C(=O)N1CCN(C(=O)/C(C#N)=C/c2ccc(O)c(O)c2)CC1 | 4 µM | 25 µM |
| N#C/C(=C\c1cc(O)c(O)c(O)c1)C(=O)NCCCCNC(=O)/C(C#N)=C/c1cc(O)c(O)c(O)c1 | 0.6 µM | 21 µM |
| N#C/C(=C\c1ccc(O)c(O)c1)C(=O)NCCCCCCCCCCNC(=O)/C(C#N)=C/c1ccc(O)c(O)c1 | 1.3 µM | > 100 µM |
